system: SR cells; assay: Half inhibitory concentration (IC50) on ALK-positive SR cell proliferation (CCK-8); type: cell-based; settings: Homo sapiens, SR, 72 h, read-out: IC50 (nM)/ SR cell line
Description: ALK-positive SR cells (human large cell immunoblastic lymphoma) were purchased from the American Type Culture Collection (ATCC); H3122 cells (human non-small cell lung cancer) were from the Shanghai University of Science and Technology Lin Haifan's research group.
The cells used in this present disclosure were cultured in a 37° C. incubator containing 5% CO2.
SR cells were seeded in 100 μL RPMI1640 complete medium at a density of 10,000 cells/well. 100 μL of the inoculated cells were treated with 0.5 μL diluted PROTAD compound of the present disclosure to be tested at 10 successively decreasing concentrations (starting at the highest concentration of 10 μM; 5-fold serial dilutions) After the cells were treated with the drug for 72 h, cell viability was determined according to the CCK-8 reagent operating instructions. The negative control was DMSO, and the positive control was a commercial inhibitor. After CCK-8 treatment for 2 h, the value of O.D.450 was measured using a microplate reader.

Row | SMILES | IC50
1 | CCc1cc2c(cc1N1CCC(NC(=O)CCCSc3cccc4c3C(=O)N(C3CCC(=O)NC3=O)C4=O)CC1)C(C)(C)c1[nH]c3cc(C#N)ccc3c1C2=O (stereo not drawn) [SIAIS219013, N-(1-(3-cyano-9-ethyl-6,6-dimethyl-11-oxo-6,11-dihydro-5H-benzo[b]carbazol-8-yl)piperidin-4-yl)-4-((2-(2,6-dioxopiperidin-3-yl)-1,3-dioxoisoindolin-4-yl)thio)butanamide] | 143 nM

same assay, conditions: Homo sapiens; SR cells, 72 h drug treatment, CCK-8; read-out: IC50 (nM)/ SR cell line

Row | SMILES | IC50
2 | CCc1cc2c(cc1N1CCC(N3CCN(C(=O)CCCSc4cccc5c4C(=O)N(C4CCC(=O)NC4=O)C5=O)CC3)CC1)C(C)(C)c1[nH]c3cc(C#N)ccc3c1C2=O (stereo not drawn) [SIAIS219006, 8-(4-(4-(4-((2-(2,6-dioxopiperidin-3-yl)-1,3-dioxoisoindolin-4-yl)thio)butanoyl)piperazin-1-yl)piperidin-1-yl)-9-ethyl-6,6-dimethyl-11-oxo-6,11-dihydro-5H-benzo[b]carbazole-3-carbonitrile] | 16.4 nM
3 | CCc1cc2c(cc1N1CCC(N3CCN(C(=O)COCCOCCOCCSc4cccc5c4CN(C4CCC(=O)NC4=O)C5=O)CC3)CC1)C(C)(C)c1[nH]c3cc(C#N)ccc3c1C2=O (stereo not drawn) [SIAIS249068, 8-(4-(4-(2-(2-(2-(2-((2-(2,6-dioxopiperidin-3-yl)-1-oxoisoindolin-4-yl)thio)ethoxy)ethoxy)ethoxy)acetyl)piperazin-1-yl)piperidin-1-yl)-9-ethyl-6,6-dimethyl-11-oxo-6,11-dihydro-5H-benzo[b]carbazole-3-carbonitrile] | 0.33 ± 0.06 nM
4 | CCc1cc2c(cc1N1CCC(N3CCN(CCCCCCSc4cccc5c4CN(C4CCC(=O)NC4=O)C5=O)CC3)CC1)C(C)(C)c1[nH]c3cc(C#N)ccc3c1C2=O (stereo not drawn) [SIAIS262159, 8-(4-(4-(6-((2-(2,6-dioxopiperidin-3-yl)-1-oxoisoindolin-4-yl)thio)hexyl)piperazin-1-yl)piperidin-1-yl)-9-ethyl-6,6-dimethyl-11-oxo-6,11-dihydro-5H-benzo[b]carbazole-3-carbonitrile] | 1 nM
5 | CCc1cc2c(cc1N1CCC(N3CCN(C(=O)CCCCCCSc4cccc5c4CN(C4CCC(=O)NC4=O)C5=O)CC3)CC1)C(C)(C)c1[nH]c3cc(C#N)ccc3c1C2=O (stereo not drawn) [SIAIS262101, 8-(4-(4-(7-((2-(2,6-dioxopiperidin-3-yl)-1-oxoisoindolin-4-yl)thio)heptanoyl)piperazin-1-yl)piperidin-1-yl)-9-ethyl-6,6-dimethyl-11-oxo-6,11-dihydro-5H-benzo[b]carbazole-3-carbonitrile] | 2.94 ± 3.7 nM
6 | COc1cc(N2CCC(NC(=O)CSc3cccc4c3CN(C3CCC(=O)NC3=O)C4=O)CC2)ccc1Nc1ncc(Cl)c(Nc2ccccc2P(C)(C)=O)n1 (stereo not drawn) [SIAIS219133, N-(1-(4-((5-chloro-4-((2-(dimethylphosphoryl)phenyl)amino)pyrimidin-2-yl)amino)-3-methoxyphenyl)piperidin-4-yl)-2-((2-(2,6-dioxopiperidin-3-yl)-1-oxoisoindolin-4-yl)thio)acetamide] | 2.9 ± 0.1 nM
7 | CCc1cc2c(cc1N1CCC(N3CCN(C(=O)CCCCSc4cccc5c4CN(C4CCC(=O)NC4=O)C5=O)CC3)CC1)C(C)(C)c1[nH]c3cc(C#N)ccc3c1C2=O (stereo not drawn) [SIAIS262099, 8-(4-(4-(5-((2-(2,6-dioxopiperidin-3-yl)-1-oxoisoindolin-4-yl)thio)pentanoyl)piperazin-1-yl)piperidin-1-yl)-9-ethyl-6,6-dimethyl-11-oxo-6,11-dihydro-5H-benzo[b]carbazole-3-carbonitrile] | 0.93 ± 1.11 nM
8 | CCc1cc2c(cc1N1CCC(N3CCN(C(=O)CCCCCSc4cccc5c4CN(C4CCC(=O)NC4=O)C5=O)CC3)CC1)C(C)(C)c1[nH]c3cc(C#N)ccc3c1C2=O (stereo not drawn) [SIAIS262100, 8-(4-(4-(6-((2-(2,6-dioxopiperidin-3-yl)-1-oxoisoindolin-4-yl)thio)hexanoyl)piperazin-1-yl)piperidin-1-yl)-9-ethyl-6,6-dimethyl-11-oxo-6,11-dihydro-5H-benzo[b]carbazole-3-carbonitrile] | 0.52 ± 0.48 nM
9 | CCc1cc2c(cc1N1CCC(N3CCN(C(=O)CSc4cccc5c4CN(C4CCC(=O)NC4=O)C5=O)CC3)CC1)C(C)(C)c1[nH]c3cc(C#N)ccc3c1C2=O (stereo not drawn) [SIAIS262096, 8-(4-(4-(2-((2-(2,6-dioxopiperidin-3-yl)-1-oxoisoindolin-4-yl)thio)acetyl)piperazin-1-yl)piperidin-1-yl)-9-ethyl-6,6-dimethyl-11-oxo-6,11-dihydro-5H-benzo[b]carbazole-3-carbonitrile] | 0.22 ± 0.11 nM
10 | CCc1cc2c(cc1N1CCC(N3CCN(C(=O)COCCOCCOCCOCCSc4cccc5c4CN(C4CCC(=O)NC4=O)C5=O)CC3)CC1)C(C)(C)c1[nH]c3cc(C#N)ccc3c1C2=O (stereo not drawn) [SIAIS249069, 8-(4-(4-(14-((2-(2,6-dioxopiperidin-3-yl)-1-oxoisoindolin-4-yl)thio)-3,6,9,12-tetraoxatetradecanoyl)piperazin-1-yl)piperidin-1-yl)-9-ethyl-6,6-dimethyl-11-oxo-6,11-dihydro-5H-benzo[b]carbazole-3-carbonitrile] | 0.81 ± 0.28 nM
11 | CCc1cc2c(cc1N1CCC(N3CCN(C(=O)CCSc4cccc5c4CN(C4CCC(=O)NC4=O)C5=O)CC3)CC1)C(C)(C)c1[nH]c3cc(C#N)ccc3c1C2=O (stereo not drawn) [SIAIS262097, 8-(4-(4-(3-((2-(2,6-dioxopiperidin-3-yl)-1-oxoisoindolin-4-yl)thio)propanoyl)piperazin-1-yl)piperidin-1-yl)-9-ethyl-6,6-dimethyl-11-oxo-6,11-dihydro-5H-benzo[b]carbazole-3-carbonitrile] | 3.89 ± 0.78 nM
12 | COc1cc(N2CCC(NC(=O)COCCOCCSc3cccc4c3CN(C3CCC(=O)NC3=O)C4=O)CC2)ccc1Nc1ncc(Cl)c(Nc2ccccc2P(C)(C)=O)n1 (stereo not drawn) [SIAIS219140, N-(1-(4-((5-chloro-4-((2-(dimethylphosphoryl)phenyl)amino)pyrimidin-2-yl)amino)-3-methoxyphenyl)piperidin-4-yl)-2-(2-(2-((2-(2,6-dioxopiperidin-3-yl)-1-oxoisoindolin-4-yl)thio)ethoxy)ethoxy)acetamide] | 5.08 ± 0.62 nM
13 | COc1cc(N2CCC(NC(=O)COCCOCCOCCOCCOCCSc3cccc4c3CN(C3CCC(=O)NC3=O)C4=O)CC2)ccc1Nc1ncc(Cl)c(Nc2ccccc2P(C)(C)=O)n1 (stereo not drawn) [SIAIS219143, N-(1-(4-((5-chloro-4-((2-(dimethylphosphoryl)phenyl)amino)pyrimidin-2-yl)amino)-3-methoxyphenyl)piperidin-4-yl)-17-((2-(2,6-dioxopiperidin-3-yl)-1-oxoisoindolin-4-yl)thio)-3,6,9,12,15-pentaoxaheptadecan-1-amide] | 5.53 ± 1.28 nM
14 | CCc1cc2c(cc1N1CCC(N3CCN(CCSc4cccc5c4C(=O)N(C4CCC(=O)NC4=O)C5=O)CC3)CC1)C(C)(C)c1[nH]c3cc(C#N)ccc3c1C2=O (stereo not drawn) [SIAIS262158, 8-(4-(4-(2-((2-(2,6-dioxopiperidin-3-yl)-1,3-dioxoisoindolin-4-yl)thio)ethyl)piperazin-1-yl)piperidin-1-yl)-9-ethyl-6,6-dimethyl-11-oxo-6,11-dihydro-5H-benzo[b]carbazole-3-carbonitrile] | 2.9 nM
15 | CCc1cc2c(cc1N1CCC(NC(=O)CSc3cccc4c3CN(C3CCC(=O)NC3=O)C4=O)CC1)C(C)(C)c1[nH]c3cc(C#N)ccc3c1C2=O (stereo not drawn) [SIAIS262161, N-(1-(3-cyano-9-ethyl-6,6-dimethyl-11-oxo-6,11-dihydro-5H-benzo[b]carbazol-8-yl)piperidin-4-yl)-2-((2-(2,6-dioxopiperidin-3-yl)-1-oxoisoindolin-4-yl)thio)acetamide] | 1.86 nM

Source: patent US12226424B2, “Target protein degradation compounds, their anti-tumor use, their intermediates and use of intermediates” (ShanghaiTech University, priority 2018, dated 2025)
